Source: paper PMC6694155, “PTPσ inhibitors promote hematopoietic stem cell regeneration” (Nature Communications, 2019)
Several values for one entry are separate records, joined by “and”; a condition that tells them apart may be missing. Equal entries are not always repeated.

Key:
human BM CD34+ cells = assay: CFU-GEMM from 300 cGy-irradiated human BM CD34+ cells; type: cell-based
Experimental: (§1) CFC assays (colony-forming unit-granulocyte monocyte), burst-forming unit-erythroid, and CFU-GEMM were performed using MethoCult GF M3434 (Stemcell Technologies)[6]. For all in vitro assays, BM CD34^−KSL cells, KSL cells, and Lin^− cells were cultured in TSF media (IMDM, 10% FBS, 1% pen-strep, 20 ng/mL recombinant mouse TPO, 125 ng/mL recombinant mouse SCF, 50 ng/mL recombinant mouse Flt3 ligand). Recombinant mouse SCF, Flt3 ligand, and TPO were purchased from R&D Systems. For competitive repopulation assays, BM cells were isolated from donor 10–12-week-old female CD45.2^+ mice. Recipient 10-week-old female CD45.1^+ B6.SJL mice were irradiated with 950 cGy TBI using a Cs137 irradiator and donor BM cells were administered via tail vein injection along with a competing dose of 1 × 10^5 non-irradiated host BM cells. Multilineage donor hematopoietic cell engraftment was measured in the PB by flow cytometry.
Human BM mononuclear cells were purchased from AllCells. Cryopreserved human BM cells were recovered in IMDM + 10% FBS + 1% penicillin–streptomycin and then positively selected for CD34^+ stem/progenitor cells by using CD34 MicroBead Kit (Miltenyi Biotec, #130-046-702, 1:5). […]

[1] = target: T1, PPα (Protein Phosphatase 1 Catalytic Subunit alpha) (Homo sapiens, UniProt P62136); assay: PhosphataseProfiler screen: PPα; type: biochemical; details: replicates
T1 construct: purchased Eurofins Pharma Discovery Services UK
Experimental: (§2) Compound DJ001 was evaluated in a PhosphataseProfiler™ screen at 10 μM and 1 μM (2.7 μg/mL and 0.27 μg/mL) concentrations at Eurofins Pharma Discovery Services UK (Study number UK022-0004033) against a panel of 21 Phosphatases. In each experiment, the respective reference antagonist/agonist was tested directly with DJ001 and the data were compared with historical values determined at Eurofins. DJ001 compound inhibition was calculated as percentage inhibition of the enzymatic activity compared with control.

[2] = target: T2, SHP-1 (Protein-Tyrosine Phosphatase 1C) (Homo sapiens, UniProt P29350); assay: PhosphataseProfiler screen: SHP-1; type: biochemical; details: replicates
T2 construct: purchased Eurofins Pharma Discovery Services UK
Experimental: as §2

[3] = target: T3, TMDP (Dual Specificity Phosphatase 13) (Homo sapiens, UniProt Q9UII6); assay: PhosphataseProfiler screen: TMDP; type: biochemical; details: replicates
T3 construct: purchased Eurofins Pharma Discovery Services UK
Experimental: as §2

[4] = tested on: PPA (Protein Phosphatase 1); assay: PhosphataseProfiler screen: PPA; type: biochemical; details: replicates, in % (unit assumed)
Experimental: as §2

BM KSL cells [5] = assay: Transendothelial migration assay; type: cell-based, mouse
Experimental: For the transendothelial migration assay,VeraVec^TM mouse spleen ECs (Angiocrine Biosciences) were cultured to confluence in […] pore transwells (Corning Incorporated). Transwells were then seeded with 50,000 sorted BM KSL cells in IMDM with 10% FBS, 1% pen-strep, 20 ng/mL TPO, 125 ng/mL SCF, and 50 ng/mL Flt3 ligand with or without 1 µg/mL of DJ001. SDF-1, 500 ng/mL (R&D Systems), was added to the bottom chamber of the transwell. At 18 h post incubation, cells in the bottom chamber were collected and cell counts were performed.

[6] = target: T4, MKP5 (Mitogen-activated Protein Kinase Phosphatase 5) (Homo sapiens, UniProt Q9Y6W6); assay: PhosphataseProfiler screen: MKP5; type: biochemical; details: 0.27 g/mL DJ001; replicates
T4 construct: purchased Eurofins Pharma Discovery Services UK
Experimental: as §2

BM KSL cells [7] = assay: CFC assay, 3 day culture of non-irradiated BM KSL cells; type: cell-based, mouse; details: for Supplementary Figure 3b: BFU-E / Supplementary Figure 3b: CFU-GEMM / Supplementary Figure 3b: CFU-GM: non-irradiated BM KSL cells, replicates
Experimental: as §1

T2 sequence (P29350 whole entry, species assumed): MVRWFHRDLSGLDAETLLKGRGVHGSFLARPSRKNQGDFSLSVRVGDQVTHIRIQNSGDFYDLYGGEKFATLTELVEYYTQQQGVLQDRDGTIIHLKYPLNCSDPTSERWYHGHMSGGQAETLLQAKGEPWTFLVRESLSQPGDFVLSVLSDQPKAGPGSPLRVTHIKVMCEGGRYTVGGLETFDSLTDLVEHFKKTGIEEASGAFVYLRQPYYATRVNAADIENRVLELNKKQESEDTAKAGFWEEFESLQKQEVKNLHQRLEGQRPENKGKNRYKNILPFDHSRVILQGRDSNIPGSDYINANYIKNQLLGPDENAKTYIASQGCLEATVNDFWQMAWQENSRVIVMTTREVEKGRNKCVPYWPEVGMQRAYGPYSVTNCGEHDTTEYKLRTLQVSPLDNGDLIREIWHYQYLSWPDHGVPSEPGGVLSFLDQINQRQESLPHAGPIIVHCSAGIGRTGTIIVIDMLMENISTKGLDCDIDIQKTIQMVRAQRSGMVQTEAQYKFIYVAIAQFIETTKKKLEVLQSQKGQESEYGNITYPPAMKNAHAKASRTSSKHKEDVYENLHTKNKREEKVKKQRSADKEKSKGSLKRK
T3 sequence (Q9UII6 whole entry, species assumed): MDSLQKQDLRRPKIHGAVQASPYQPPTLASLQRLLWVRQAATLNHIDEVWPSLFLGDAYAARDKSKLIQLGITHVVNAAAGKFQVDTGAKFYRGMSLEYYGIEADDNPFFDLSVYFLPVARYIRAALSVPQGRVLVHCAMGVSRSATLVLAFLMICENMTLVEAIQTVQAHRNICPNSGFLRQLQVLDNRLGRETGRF
T1 sequence (P62136 whole entry): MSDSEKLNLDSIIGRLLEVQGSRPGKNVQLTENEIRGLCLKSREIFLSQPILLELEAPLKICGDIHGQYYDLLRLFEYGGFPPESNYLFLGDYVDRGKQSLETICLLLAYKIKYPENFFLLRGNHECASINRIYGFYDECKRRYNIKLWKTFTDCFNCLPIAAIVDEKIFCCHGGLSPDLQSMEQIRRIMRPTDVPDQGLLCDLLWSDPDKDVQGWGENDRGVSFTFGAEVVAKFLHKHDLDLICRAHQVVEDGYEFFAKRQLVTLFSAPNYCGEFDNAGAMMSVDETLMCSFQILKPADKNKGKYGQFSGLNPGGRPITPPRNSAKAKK
T4 sequence (Q9Y6W6 whole entry, species assumed): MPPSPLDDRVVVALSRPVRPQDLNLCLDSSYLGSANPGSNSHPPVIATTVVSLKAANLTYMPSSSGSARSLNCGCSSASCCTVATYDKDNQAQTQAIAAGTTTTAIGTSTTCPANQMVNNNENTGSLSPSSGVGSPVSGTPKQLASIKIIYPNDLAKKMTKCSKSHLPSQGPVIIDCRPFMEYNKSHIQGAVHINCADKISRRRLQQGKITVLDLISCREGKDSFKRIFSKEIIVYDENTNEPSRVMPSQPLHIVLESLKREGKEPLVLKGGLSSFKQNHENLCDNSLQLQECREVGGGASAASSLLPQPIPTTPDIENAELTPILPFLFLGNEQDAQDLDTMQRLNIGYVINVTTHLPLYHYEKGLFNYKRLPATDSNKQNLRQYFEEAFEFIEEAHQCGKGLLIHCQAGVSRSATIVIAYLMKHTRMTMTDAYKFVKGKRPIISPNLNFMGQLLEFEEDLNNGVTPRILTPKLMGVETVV

O=C(/C=C\Nc1cccc([N+](=O)[O-])c1)c1ccccc1 [DJ001, (Z)-3-((3-nitrophenyl)amino)-1-phenylprop-2-en-1-one]
Figure 5b: CFU-GEMM (human BM CD34+ cells; 300 cGy-irradiated human BM CD34+ cells, replicates): 8 and 13 and 15 and 22 and 19 and 14
recovery of multipotent CFU-GEMMs (human BM CD34+ cells; 72 h following 300 cGy irradiation of human BM CD34+ cells): increased the recovery of multipotent CFU-GEMMs
Supplementary Figure 1: PP activity ([1]; 2.7 μg/mL DJ001): 87 and 90 and 89
Supplementary Figure 1: PP activity ([1]; 0.27 g/mL DJ001): 99 and 95 (2×)
Supplementary Figure 1: SHP-1 activity ([2]; 2.7 μg/mL DJ001): 81 and 82 and 85
Supplementary Figure 1: SHP-1 activity ([2]; 0.27 g/mL DJ001): 99 (2×) and 102
Supplementary Figure 1: TMDP activity ([3]; 2.7 μg/mL DJ001): 101
Supplementary Figure 1: TMDP activity ([3]; 0.27 g/mL DJ001): 108 and 103 (2×)
Supplementary Figure 1: PPA activity ([4]; 2.7 μg/mL DJ001): 101 and 93 and 96
Supplementary Figure 1: PPA activity ([4]; 0.27 g/mL DJ001): 96 and 90 and 101
in vitro migration of BM KSL cells through EC monolayers (BM KSL cells [5]; 1 µg/mL DJ001, 18 h): did not alter the in vitro migration
number of cells within the lower chambers, per replicate (Supplementary Figure 8a) (BM KSL cells [5]; 1 µg/ml DJ001, 18 hours): 17.5 and 8.74 and 19.1 and 21.8 and 10.9
Supplementary Figure 1: MKP5 activity [6]: 91 and 87 and 88
Supplementary Figure 3b: BFU-E (BM KSL cells [7]; 10 ng/mL): 0 (4×) and 1 and 2
Supplementary Figure 3b: CFU-GEMM (BM KSL cells [7]; 10 ng/mL): 2 and 4 (2×) and 7 (2×) and 3
Supplementary Figure 3b: CFU-GM (BM KSL cells [7]; 10 ng/mL): 21 and 22 and 19 and 15 (2×) and 18
Supplementary Figure 3b: BFU-E (BM KSL cells [7]; 100 ng/mL): 1 (3×) and 3 and 2
Supplementary Figure 3b: CFU-GEMM (BM KSL cells [7]; 100 ng/mL): 8 (2×) and 7 and 6 and 5
Supplementary Figure 3b: CFU-GM (BM KSL cells [7]; 100 ng/mL): 23 and 20 and 24 (2×) and 21
Supplementary Figure 3b: BFU-E (BM KSL cells [7]; 1000 ng/mL): 3 and 2 (3×) and 1
Supplementary Figure 3b: CFU-GEMM (BM KSL cells [7]; 1000 ng/mL): 6 (3×) and 8 and 9
Supplementary Figure 3b: CFU-GM (BM KSL cells [7]; 1000 ng/mL): 27 and 30 and 28 (2×) and 25
Supplementary Figure 3b: BFU-E (BM KSL cells [7]; 5 µg/mL): 2 and 4 and 1 (3×) and 0
Supplementary Figure 3b: BFU-E (BM KSL cells [7]; 10 µg/mL): 3 (2×) and 2 (2×) and 1 (2×)
Supplementary Figure 3b: CFU-GEMM (BM KSL cells [7]; 10 µg/mL): 3 (3×) and 2 (2×) and 1
Supplementary Figure 3b: CFU-GM (BM KSL cells [7]; 10 µg/mL): 14 (2×) and 17 and 16 and 15 and 12
number of BM CFCs in 3 day culture of BM KSL cells (BM KSL cells [7]; 10 – 100 ng/ml DJ001): significantly increased the number of BM CFCs
numbers of CFCs vs control (BM KSL cells [7]; 3 day culture of non-irradiated BM KSL cells): significantly increased the numbers of colony forming cells (CFCs)
Supplementary Figure 3b: CFU-GEMM (BM KSL cells [7]): 3 (4×) and 6 and 4
Supplementary Figure 3b: CFU-GM (BM KSL cells [7]): 22 and 21 and 23 and 20 and 19 and 18
